From patent publication US20250171437A1 (Agios Pharmaceuticals,Inc., priority 2022, published 2025)

Molecular target: T1, human PAH with the R408W mutation (A375 R408W cells) (Homo sapiens, UniProt P00439, R408W)
T1 construct: expressed in transfected cells
T1 sequence (P00439 1-452 R408W): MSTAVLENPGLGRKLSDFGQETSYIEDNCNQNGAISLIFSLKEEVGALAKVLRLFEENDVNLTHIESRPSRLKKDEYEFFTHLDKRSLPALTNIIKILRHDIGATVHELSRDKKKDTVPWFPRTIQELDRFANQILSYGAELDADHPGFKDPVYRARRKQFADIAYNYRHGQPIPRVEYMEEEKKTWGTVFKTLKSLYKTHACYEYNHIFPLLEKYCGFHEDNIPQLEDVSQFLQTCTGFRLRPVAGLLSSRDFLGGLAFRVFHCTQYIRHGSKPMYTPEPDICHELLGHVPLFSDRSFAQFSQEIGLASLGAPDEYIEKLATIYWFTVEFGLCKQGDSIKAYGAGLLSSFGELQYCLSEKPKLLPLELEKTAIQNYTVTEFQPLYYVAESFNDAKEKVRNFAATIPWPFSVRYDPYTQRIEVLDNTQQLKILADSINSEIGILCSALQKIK
Assay: Cell Based Phenylalanine Flux Assay
Settings: A375 R408W cells; 24 hrs with compound, then 20 μM sepiapterin and 800 μM 13C9,15N-Phenylalanine for 4 hours; 13C-Tyrosine by LC-MS; average where tested multiple times
Method in brief: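 LC-MS quantitation of 13C-tyrosine in media gave AC50 values. Stable A375 R408W PAH cells were preincubated 24 h with compound, then fed 800 μM labelled Phe plus 20 μM sepiapterin for 4 h. Dose curves were 10-point, tested in duplicate, averaged over repeat runs.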

Q: For `CC(C)(O)c1nc(Br)c(C(=O)N2CCc3[nH]cnc3[C@H]2c2nc3c(F)cccc3o2)o1` [Example 252, (S)-(4-bromo-2-(2-hydroxypropan-2-yl)oxazol-5-yl)(4-(4-fluorobenzo[d]oxazol-2-yl)-6,7-dihydro-1H-imidazo[4,5-c]pyridin-5(4H)-yl)methanone], which AC50 is on record?
A: ≤ 500 nM

Q: Which AC50 does the source give for `Cc1ccc2oc([C@@H]3c4nc[nH]c4CCN3C(=O)c3oc(-c4cnn(C)c4)nc3C(F)F)nc2c1` [Example 771, (S)-(4-(difluoromethyl)-2-(1-methyl-1H-pyrazol-4-yl)oxazol-5-yl)(4-(5-methylbenzo[d]oxazol-2-yl)-6,7-dihydro-1H-imidazo[4,5-c]pyridin-5(4H)-yl)methanone] here?
A: ≤ 500 nM

Q: For `O=C(c1cnn2cc(N3CCC(F)CC3)ccc12)N1CCc2[nH]cnc2[C@@H]1c1nc2cccc(F)c2o1` [Example 370, (R)-(4-(7-fluorobenzo[d]oxazol-2-yl)-6,7-dihydro-1H-imidazo[4,5-c]pyridin-5(4H)-yl)(6-(4-fluoropiperidin-1-yl)pyrazolo[1,5-a]pyridin-3-yl)methanone], which AC50 is on record?
A: 1000 to 5000 nM

Q: `O=C(c1ccnn1C(F)(F)F)N1CCc2[nH]cnc2[C@@H]1c1nc2ccc(F)cc2o1` [Example 288, (R)-(4-(6-fluorobenzo[d]oxazol-2-yl)-6,7-dihydro-1H-imidazo[4,5-c]pyridin-5(4H)-yl)(1-(trifluoromethyl)-1H-pyrazol-5-yl)methanone] was tested. Which AC50 did it give?
A: 1000 to 5000 nM

Q: Which AC50 does the source give for `O=C(CC1(O)CCC1)N1CCc2[nH]cnc2[C@@H]1c1nc2cc(F)ccc2o1` [Example 56, (R)-1-(4-(5-fluorobenzo[d]oxazol-2-yl)-6,7-dihydro-1H-imidazo[4,5-c]pyridin-5(4H)-yl)-2-(1-hydroxycyclobutyl)ethanone] here?
A: 1000 to 5000 nM

Q: Which AC50 does the source give for `Cn1nc(Br)nc1C(=O)N1CCc2[nH]cnc2[C@@H]1c1nc2c(F)cccc2o1` [Example 472, (R)-(3-bromo-1-methyl-1H-1,2,4-triazol-5-yl)(4-(4-fluorobenzo[d]oxazol-2-yl)-6,7-dihydro-1H-imidazo[4,5-c]pyridin-5(4H)-yl)methanone] here?
A: 1000 to 5000 nM

Q: For `O=C(c1ocnc1C(F)F)N1CCc2[nH]cnc2[C@H]1c1nc2ccccc2o1` [Example 467, (S)-(4-(benzo[d]oxazol-2-yl)-6,7-dihydro-1H-imidazo[4,5-c]pyridin-5(4H)-yl)(4-(difluoromethyl)oxazol-5-yl)methanone], which AC50 is on record?
A: ≤ 500 nM

Q: With `O=C(c1ocnc1C(F)(F)F)N1CCc2[nH]cnc2[C@H]1c1nc2ccc(F)cc2o1` [Example 161, (S)-(4-(6-fluorobenzo[d]oxazol-2-yl)-6,7-dihydro-1H-imidazo[4,5-c]pyridin-5(4H)-yl)(4-(trifluoromethyl)oxazol-5-yl)methanone] as the compound, how does the AC50 read?
A: ≤ 500 nM

Q: Which AC50 does the source give for `O=C(c1oc(C2(O)CC2)nc1C(F)F)N1CCc2[nH]cnc2[C@@H]1c1nc2cccc(F)c2o1` [Example 213, (R)-(4-(difluoromethyl)-2-(1-hydroxycyclopropyl)oxazol-5-yl)(4-(7-fluorobenzo[d]oxazol-2-yl)-6,7-dihydro-1H-imidazo[4,5-c]pyridin-5(4H)-yl)methanone] here?
A: 500 to 1000 nM

Q: For `CC(C)(O)C1CCN(c2ccc3c(C(=O)N4CCc5[nH]cnc5[C@H]4c4nc5c(F)cccc5o4)cnn3c2)CC1` [Example 507, (S)-(4-(4-fluorobenzo[d]oxazol-2-yl)-6,7-dihydro-1H-imidazo[4,5-c]pyridin-5(4H)-yl)(6-(4-(2-hydroxypropan-2-yl)piperidin-1-yl)pyrazolo[1,5-a]pyridin-3-yl)methanone], which AC50 is on record?
A: 500 to 1000 nM

Q: For “(R)-(4-(5,7-difluorobenzo[d]oxazol-2-yl)-6,7-dihydro-1H-imidazo[4,5-c]pyridin-5(4H)-yl)(5-(1-methyl-1H-pyrazol-4-yl)-1,3,4-oxadiazol-2-yl)methanone [Example 610]”, which AC50 is on record?
A: 1000 to 5000 nM

Q: Which AC50 does the source give for “(R)-(4-(deuterium)-2-(2-hydroxypropan-2-yl)oxazol-5-yl)(4-fluoro-4-(5-fluorobenzo[d]oxazol-2-yl)-6,7-dihydro-1H-imidazo[4,5-c]pyridin-5(4H)-yl)methanone [Example 906]” here?
A: ≥ 5000 nM

Q: For `C[C@@H](O)c1nc(C(F)F)c(C(=O)N2CCc3[nH]cnc3[C@H]2c2nc3cccc(F)c3o2)o1` [Example 245, (4-(difluoromethyl)-2-((R)-1-hydroxyethyl)oxazol-5-yl)((S)-4-(7-fluorobenzo[d]oxazol-2-yl)-6,7-dihydro-1H-imidazo[4,5-c]pyridin-5(4H)-yl)methanone], which AC50 is on record?
A: ≤ 500 nM

Q: With `Cc1ccc2nc([C@@H]3c4nc[nH]c4CCN3C(=O)c3oc(C(C)(C)O)nc3Br)oc2c1` [Example 439, (S)-(4-bromo-2-(2-hydroxypropan-2-yl)oxazol-5-yl)(4-(6-methylbenzo[d]oxazol-2-yl)-6,7-dihydro-1H-imidazo[4,5-c]pyridin-5(4H)-yl)methanone] as the compound, how does the AC50 read?
A: ≤ 500 nM

Q: For `CC(C)(O)c1nc(C(F)F)c(C(=O)N2CCc3[nH]cnc3[C@H]2c2nc3cc(F)ccc3o2)o1` (single isomer, unassigned) [Example 107], which AC50 is on record?
A: ≤ 500 nM

Q: `Cn1ccc(-c2nc(C(F)F)c(C(=O)N3CCc4[nH]cnc4[C@@H]3c3nc4cccc(F)c4o3)o2)n1` [Example 592, (R)-(4-(difluoromethyl)-2-(1-methyl-1H-pyrazol-3-yl)oxazol-5-yl)(4-(7-fluorobenzo[d]oxazol-2-yl)-6,7-dihydro-1H-imidazo[4,5-c]pyridin-5(4H)-yl)methanone] was tested. Which AC50 did it give?
A: 500 to 1000 nM

Q: `CN1CCN(c2ccc3c(C(=O)N4CCc5[nH]cnc5[C@@H]4c4nc5cccc(F)c5o4)cnn3c2)CC1` [Example 364, (R)-(4-(7-fluorobenzo[d]oxazol-2-yl)-6,7-dihydro-1H-imidazo[4,5-c]pyridin-5(4H)-yl)(6-(4-methylpiperazin-1-yl)pyrazolo[1,5-a]pyridin-3-yl)methanone] was tested. Which AC50 did it give?
A: 1000 to 5000 nM

Q: Which AC50 does the source give for `O=C(CCc1nccs1)N1CCc2[nH]cnc2[C@H]1c1nc2cccc(F)c2o1` [Example 385, 1-[(4S)-4-(7-fluoro-1,3-benzoxazol-2-yl)-1,4,6,7-tetrahydroimidazo[4,5-c]pyridin-5-yl]-3-thiazol-2-yl-propan-1-one] here?
A: ≤ 500 nM

Q: For `O=C(c1ocnc1C(F)(F)F)N1CCc2[nH]cnc2[C@@H]1c1nc2cc(Br)ccc2o1` [Example 148, (R)-(4-(5-bromobenzo[d]oxazol-2-yl)-6,7-dihydro-1H-imidazo[4,5-c]pyridin-5(4H)-yl)(4-(trifluoromethyl)oxazol-5-yl)methanone], which AC50 is on record?
A: ≤ 500 nM

Q: With `COc1ccc2c(C(=O)N3CCc4[nH]cnc4[C@@H]3c3nc4c(F)cccc4o3)cnn2c1` [Example 540, (R)-(4-(4-fluorobenzo[d]oxazol-2-yl)-6,7-dihydro-1H-imidazo[4,5-c]pyridin-5(4H)-yl)(6-methoxypyrazolo[1,5-a]pyridin-3-yl)methanone] as the compound, how does the AC50 read?
A: 1000 to 5000 nM

Q: How did the AC50 turn out when `COc1cccc2oc([C@H]3c4nc[nH]c4CCN3C(=O)c3ccnn3C(F)F)nc12` [Example 604, (R)-(1-(difluoromethyl)-1H-pyrazol-5-yl)(4-(4-methoxybenzo[d]oxazol-2-yl)-6,7-dihydro-1H-imidazo[4,5-c]pyridin-5(4H)-yl)methanone] was run?
A: 1000 to 5000 nM

Q: With `COc1cccc2nc([C@@H]3c4nc[nH]c4CCN3C(=O)c3ocnc3C(F)F)oc12` [Example 457, (S)-(4-(difluoromethyl)oxazol-5-yl)(4-(7-methoxybenzo[d]oxazol-2-yl)-6,7-dihydro-1H-imidazo[4,5-c]pyridin-5(4H)-yl)methanone] as the compound, how does the AC50 read?
A: ≤ 500 nM

Q: `C[C@@H](O)c1nc(C(F)F)c(C(=O)N2CCc3[nH]cnc3[C@H]2c2nc3cc(F)ccc3o2)o1` [Example 151, (4-(difluoromethyl)-2-((R)-1-hydroxyethyl)oxazol-5-yl)((S)-4-(5-fluorobenzo[d]oxazol-2-yl)-6,7-dihydro-1H-imidazo[4,5-c]pyridin-5(4H)-yl)methanone] was tested. Which AC50 did it give?
A: ≤ 500 nM

Q: With `O=C(c1oc(-c2ncccn2)nc1C(F)F)N1CCc2[nH]cnc2[C@H]1c1nc2cccc(F)c2o1` [Example 667, (S)-(4-(difluoromethyl)-2-(pyrimidin-2-yl)oxazol-5-yl)(4-(7-fluorobenzo[d]oxazol-2-yl)-6,7-dihydro-1H-imidazo[4,5-c]pyridin-5(4H)-yl)methanone] as the compound, how does the AC50 read?
A: ≤ 500 nM

Same assay, conditions: A375 cells expressing R408W PAH; 24 hrs with compound, then 20 μM sepiapterin and 800 μM 13C9,15N-Phenylalanine for 4 hours; 13C-Tyrosine by LC-MS; average where tested multiple times

Q: With `CN(C)CCCOc1ccc2c(C(=O)N3CCc4[nH]cnc4C3c3nc4cc(F)ccc4o3)cnn2c1` (stereo not shown) as the compound, how does the AC50 read?
A: 1000 to 5000 nM

Q: How did the AC50 turn out when `Cc1ccc2nc(C3c4nc[nH]c4CCN3C(=O)c3cnn4cc(CCN(C)C)ccc34)oc2c1` (stereo not shown) was run?
A: 1000 to 5000 nM

Q: With `Cc1nnc(C(=O)N2CCc3[nH]cnc3C2c2nc3c(F)ccc(F)c3o2)o1` (stereo not shown) as the compound, how does the AC50 read?
A: 1000 to 5000 nM

Q: How did the AC50 turn out when `O=C(CCc1nccs1)N1CCc2[nH]cnc2C1c1nc2ccc(Br)cc2o1` (stereo not shown) was run?
A: ≥ 5000 nM

Q: `O=C(c1cnc(N2CCC(F)CC2)o1)N1CCc2[nH]cnc2C1c1nc2cc(F)ccc2o1` (stereo not shown) was tested. Which AC50 did it give?
A: 1000 to 5000 nM

Q: `CN(C)c1nnc(C(=O)N2CCc3[nH]cnc3C2c2nc3cc(F)ccc3o2)o1` (stereo not shown) was tested. Which AC50 did it give?
A: 1000 to 5000 nM

Q: Which AC50 does the source give for `Cn1cc(C(=O)N2CCc3[nH]cnc3C2c2nc3cc(F)ccc3o2)c(Cl)n1` (stereo not shown) here?
A: 1000 to 5000 nM

Q: With `O=C(c1nnc(-c2cnn(C(F)F)c2)o1)N1CCc2[nH]cnc2C1c1nc2cc(F)ccc2o1` (stereo not shown) as the compound, how does the AC50 read?
A: 1000 to 5000 nM

Q: How did the AC50 turn out when `CNCCc1ccc2c(C(=O)N3CCc4[nH]cnc4C3c3nc4cc(F)ccc4o3)cnn2c1` (stereo not shown) was run?
A: ≥ 5000 nM

Q: `O=C(c1cnn2cc(CCN3CC(F)C3)ccc12)N1CCc2[nH]cnc2C1c1nc2cc(F)ccc2o1` (stereo not shown) was tested. Which AC50 did it give?
A: ≥ 5000 nM
